# Measurements: patent US20240425517A1, “NOVEL COMPOUND FOR DEGRADATION OF TARGET PROTEIN OR POLYPEPTIDE BY POLYUBIQUITINATION” (PRAZER THERAPEUTICS INC., priority 2021, published 2024)
# Target: T1, BRD4 proteins (Homo sapiens, UniProt O60885)
# T1 construct: endogenous in cells; host or cells: MM.1S
# Assay: Degradation of BRD4 protein in MM.1S cell lines (Western blot densitometry)
# Format: cell-based
# Conditions: MM.1S cells, 10 μM, 24 hours
# How it was run: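 MM.1S cells in RPMI-1640 with 10% FBS were treated with each degrader at 10 μM for 24 h. RIPA lysates were analysed by SDS-PAGE/Western blot with β-actin as reference, and BRD4 band densitometry was scored as reduction <40% (+), 40-<70% (++) or ≥70% (+++).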
row,SMILES,BRD4 degrading capacity (%)
1,"Cc1sc2c(c1C)C(c1ccc(Cl)cc1)=N[C@@H](CC(=O)Nc1ccc(C#CC(N)CO)cc1)c1nnc(C)n1-2.Cl (stereo partly drawn) [3-49′, N-(4-(3-amino-4-hydroxybut-1-yn-1-yl)phenyl)-2-((S)-4-(4-chlorophenyl)-2,3,9-trimethyl-6H-thieno[3,2-f][1,2,4]triazolo[4,3-a][1,4]diazepin-6-yl)acetamide hydrochloride]",++ (the degrading capacity was reduced by 40% to 70% (exclusive of 70))
2,"COC(=O)c1ccc(C(=O)N2CC3(CN(C(=O)C[C@@H]4N=C(c5ccc(Cl)cc5)c5c(sc(C)c5C)-n5c(C)nnc54)C3)C2)cc1C#CCN [5-41′, methyl (S)-2-(3-aminoprop-1-yn-1-yl)-4-(6-(2-(4-(4-chlorophenyl)-2,3,9-trimethyl-6H-thieno[3,2-f][1,2,4]triazolo[4,3-a][1,4]diazepin-6-yl)acetyl)-2,6-diazaspiro[3.3]heptane-2-carbonyl)benzoate trifluoroacetic acid]",+++ (the degrading capacity was reduced by 70% or more)
3,"COC(=O)c1ccc(N2CCN(CCCNC(=O)C[C@@H]3N=C(c4ccc(Cl)cc4)c4c(sc(C)c4C)-n4c(C)nnc43)CC2)cc1C#CCN.Cl [5-164′, methyl (S)-2-(3-aminoprop-1-yn-1-yl)-4-(4-(3-(2-(4-(4-chlorophenyl)-2,3,9-trimethyl-6H-thieno[3,2-f][1,2,4]triazolo[4,3-a][1,4]diazepin-6-yl)acetamido)propyl)piperazin-1-yl)benzoate hydrochloride]",+++ (the degrading capacity was reduced by 70% or more)
4,"Cc1sc2c(c1C)C(c1ccc(Cl)cc1)=N[C@@H](CC(=O)N1CCC(CNc3ccc(C(=O)O)c(C#CCN)c3)CC1)c1nnc(C)n1-2 [5-139′, (S)-2-(3-aminoprop-1-yn-1-yl)-4-(((1-(2-(4-(4-chlorophenyl)-2,3,9-trimethyl-6H-thieno[3,2-f][1,2,4]triazolo[4,3-a][1,4]diazepin-6-yl)acetyl)piperidin-4-yl)methyl)amino)benzoic acid trifluoroacetic acid]",+ (the degrading capacity of each BRD4 degrader was reduced by less than 40%)
5,"Cc1sc2c(c1C)C(c1ccc(Cl)cc1)=N[C@@H](CC(=O)NCC#Cc1ccc(C#CCN)nc1)c1nnc(C)n1-2.Cl [4-179′, (S)—N-(3-(6-(3-aminoprop-1-yn-1-yl)pyridin-3-yl)prop-2-yn-1-yl)-2-(4-(4-chlorophenyl)-2,3,9-trimethyl-6H-thieno[3,2-f][1,2,4]triazolo[4,3-a][1,4]diazepin-6-yl)acetamide hydrochloride]",+ (the degrading capacity of each BRD4 degrader was reduced by less than 40%)
6,Cc1sc2c(c1C)C(c1ccc(Cl)cc1)=N[C@@H](CC(=O)NCCCCCCCCNC(=O)c1ccc(C#CCN)o1)c1nnc(C)n1-2.Cl [4-235′],++ (the degrading capacity was reduced by 40% to 70% (exclusive of 70))
7,"COC(=O)c1nc(NC(=O)CCCNC(=O)C[C@@H]2N=C(c3ccc(Cl)cc3)c3c(sc(C)c3C)-n3c(C)nnc32)ccc1C#CCN.Cl [5-96′, methyl (S)-3-(3-aminoprop-1-yn-1-yl)-6-(4-(2-(4-(4-chlorophenyl)-2,3,9-trimethyl-6H-thieno[3,2-f][1,2,4]triazolo[4,3-a][1,4]diazepin-6-yl)acetamido)butanamido)picolinate hydrochloride]",+++ (the degrading capacity was reduced by 70% or more)
8,"Cc1sc2c(c1C)C(c1ccc(Cl)cc1)=N[C@@H](CC(=O)NCCCC(=O)Nc1ccc(-c3cnc(C(F)(F)F)nc3)c(C#CCN)c1)c1nnc(C)n1-2.Cl [5-81′, (S)—N-(3-(3-aminoprop-1-yn-1-yl)-4-(2-(trifluoromethyl)pyrimidin-5-yl)phenyl)-4-(2-(4-(4-chlorophenyl)-2,3,9-trimethyl-6H-thieno[3,2-f][1,2,4]triazolo[4,3-a][1,4]diazepin-6-yl)acetamido)butanamide hydrochloride]",+++ (the degrading capacity was reduced by 70% or more)
9,"COC(=O)c1ccc(NC(=O)CCCNC(=O)C2CCN(C(=O)C[C@@H]3N=C(c4ccc(Cl)cc4)c4c(sc(C)c4C)-n4c(C)nnc43)CC2)cc1C#CCN.Cl [5-26′, methyl (S)-2-(3-aminoprop-1-yn-1-yl)-4-(4-(1-(2-(4-(4-chlorophenyl)-2,3,9-trimethyl-6H-thieno[3,2-f][1,2,4]triazolo[4,3-a][1,4]diazepin-6-yl)acetyl)piperidine-4-carboxamido)butanamido)benzoate hydrochloride]",++ (the degrading capacity was reduced by 40% to 70% (exclusive of 70))
10,"COC(=O)c1ccc(NC(=O)C2CCN(C(=O)C[C@@H]3N=C(c4ccc(Cl)cc4)c4c(sc(C)c4C)-n4c(C)nnc43)CC2)cc1C#CCOS(N)(=O)=O [5-158′, methyl (S)-4-(1-(2-(4-(4-chlorophenyl)-2,3,9-trimethyl-6H-thieno[3,2-f][1,2,4]triazolo[4,3-a][1,4]diazepin-6-yl)acetyl)piperidine-4-carboxamido)-2-(3-(sulfamoyloxy)prop-1-yn-1-yl)benzoate trifluoroacetic acid]",+++ (the degrading capacity was reduced by 70% or more)
11,"COC(=O)c1ccc(N2CC3(CN(C(=O)C[C@@H]4N=C(c5ccc(Cl)cc5)c5c(sc(C)c5C)-n5c(C)nnc54)C3)C2)cc1C#CCN [5-40′, methyl (S)-2-(3-aminoprop-1-yn-1-yl)-4-(6-(2-(4-(4-chlorophenyl)-2,3,9-trimethyl-6H-thieno[3,2-f][1,2,4]triazolo[4,3-a][1,4]diazepin-6-yl)acetyl)-2,6-diazaspiro[3.3]heptan-2-yl)benzoate trifluoroacetic acid]",+++ (the degrading capacity was reduced by 70% or more)
12,"Cc1sc2c(c1C)C(c1ccc(Cl)cc1)=N[C@@H](CC(=O)NCC#Cc1cccc(C#CCN)c1)c1nnc(C)n1-2.Cl [4-129′, (S)—N-(3-(3-(3-aminoprop-1-yn-1-yl)phenyl)prop-2-yn-1-yl)-2-(4-(4-chlorophenyl)-2,3,9-trimethyl-6H-thieno[3,2-f][1,2,4]triazolo[4,3-a][1,4]diazepin-6-yl)acetamide hydrochloride]",+++ (the degrading capacity was reduced by 70% or more)
13,Cc1sc2c(c1C)C(c1ccc(Cl)cc1)=N[C@@H](CC(=O)NCCCCNC(=O)c1ccc(C#CCN)o1)c1nnc(C)n1-2.Cl [4-149′],+++ (the degrading capacity was reduced by 70% or more)
14,"Cc1sc2c(c1C)C(c1ccc(Cl)cc1)=N[C@@H](CC(=O)NCCCCCCCCCCC(=O)Nc1cccc(C#CCN)c1)c1nnc(C)n1-2.Cl [5-108′, (S)—N-(3-(3-aminoprop-1-yn-1-yl)phenyl)-11-(2-(4-(4-chlorophenyl)-2,3,9-trimethyl-6H-thieno[3,2-f][1,2,4]triazolo[4,3-a][1,4]diazepin-6-yl)acetamido)undecanamide hydrochloride]",+++ (the degrading capacity was reduced by 70% or more)
15,"Cc1sc2c(c1C)C(c1ccc(Cl)cc1)=N[C@@H](CC(=O)NCCCC(=O)Nc1ccc(C(N)=O)c(C#CCN)c1)c1nnc(C)n1-2.Cl [5-59′, (S)-2-(3-aminoprop-1-yn-1-yl)-4-(4-(2-(4-(4-chlorophenyl)-2,3,9-trimethyl-6H-thieno[3,2-f][1,2,4]triazolo[4,3-a][1,4]diazepin-6-yl)acetamido)butanamido)benzamide hydrochloride]",+++ (the degrading capacity was reduced by 70% or more)
16,COC(=O)c1ccc(NC(=O)CCCNC(=O)C[C@@H]2N=C(c3ccc(Cl)cc3)c3c(sc(C)c3C)-n3c(C)nnc32)cc1C#CCN.Cl [4-228′],+++ (the degrading capacity was reduced by 70% or more)
17,"COC(=O)c1ccc(NC(=O)C2CCN(C(=O)C[C@@H]3N=C(c4ccc(Cl)cc4)c4c(sc(C)c4C)-n4c(C)nnc43)CC2)cc1C#CCN.Cl [5-23′, methyl (S)-2-(3-aminoprop-1-yn-1-yl)-4-(1-(2-(4-(4-chlorophenyl)-2,3,9-trimethyl-6H-thieno[3,2-f][1,2,4]triazolo[4,3-a][1,4]diazepin-6-yl)acetyl)piperidine-4-carboxamido)benzoate hydrochloride]",+++ (the degrading capacity was reduced by 70% or more)
18,"COC(=O)c1ccc(NC2CCN(C(=O)C[C@@H]3N=C(c4ccc(Cl)cc4)c4c(sc(C)c4C)-n4c(C)nnc43)CC2)cc1C#CCN [5-86′, methyl (S)-2-(3-aminoprop-1-yn-1-yl)-4-((1-(2-(4-(4-chlorophenyl)-2,3,9-trimethyl-6H-thieno[3,2-f][1,2,4]triazolo[4,3-a][1,4]diazepin-6-yl)acetyl)piperidin-4-yl)amino)benzoate]",+++ (the degrading capacity was reduced by 70% or more)
